Values joined by “and” are separate entries in the source; they are usually repeats but may differ in a detail not shown here. Identical values can stand only once.
What was measured:
Parameters in all cases: scale not given: the % may be the effect or the level left
[1] = target: Aurora kinase C (Homo sapiens) (UniProt Q9UQB9); experiment: Inhibition of human AURKC assessed as percent of control at 2000 nM by KINOMEscan assay relative to control
[2] = target: Bone morphogenetic protein receptor type-2 (Homo sapiens) (UniProt Q13873); experiment: Inhibition of human BMPR2 assessed as percent of control at 2000 nM by KINOMEscan assay relative to control
[3] = target: Protein-tyrosine kinase 6 (Homo sapiens) (UniProt Q13882); experiment: Inhibition of human BRK assessed as percent of control at 2000 nM by KINOMEscan assay relative to control
[4] = target: Calcium/calmodulin-dependent protein kinase type II subunit delta (Homo sapiens) (UniProt Q13557); experiment: Inhibition of human CAMK2D assessed as percent of control at 2000 nM by KINOMEscan assay relative to control
Chain of Calcium/calmodulin-dependent protein kinase type II subunit delta (Homo sapiens) (Q13557 whole entry): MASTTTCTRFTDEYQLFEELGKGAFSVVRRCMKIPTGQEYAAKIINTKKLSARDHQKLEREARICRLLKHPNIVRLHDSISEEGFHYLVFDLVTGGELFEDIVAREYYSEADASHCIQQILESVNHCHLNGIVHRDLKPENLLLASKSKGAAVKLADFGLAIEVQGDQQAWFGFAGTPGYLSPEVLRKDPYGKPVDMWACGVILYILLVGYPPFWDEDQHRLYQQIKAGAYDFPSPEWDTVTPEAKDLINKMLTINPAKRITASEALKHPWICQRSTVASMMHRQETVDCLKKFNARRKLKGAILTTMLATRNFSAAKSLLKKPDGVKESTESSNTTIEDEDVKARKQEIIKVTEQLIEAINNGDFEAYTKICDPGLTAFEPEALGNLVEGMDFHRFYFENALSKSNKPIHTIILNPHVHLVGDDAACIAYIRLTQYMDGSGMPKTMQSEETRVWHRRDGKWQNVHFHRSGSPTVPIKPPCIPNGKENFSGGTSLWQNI

[5] = target: Cyclin-dependent kinase-like 5 (Homo sapiens) (UniProt O76039); experiment: Inhibition of human CDKL5 assessed as percent of control at 2000 nM by KINOMEscan assay relative to control
Chain of Cyclin-dependent kinase-like 5 (Homo sapiens) (O76039 whole entry, canonical isoform): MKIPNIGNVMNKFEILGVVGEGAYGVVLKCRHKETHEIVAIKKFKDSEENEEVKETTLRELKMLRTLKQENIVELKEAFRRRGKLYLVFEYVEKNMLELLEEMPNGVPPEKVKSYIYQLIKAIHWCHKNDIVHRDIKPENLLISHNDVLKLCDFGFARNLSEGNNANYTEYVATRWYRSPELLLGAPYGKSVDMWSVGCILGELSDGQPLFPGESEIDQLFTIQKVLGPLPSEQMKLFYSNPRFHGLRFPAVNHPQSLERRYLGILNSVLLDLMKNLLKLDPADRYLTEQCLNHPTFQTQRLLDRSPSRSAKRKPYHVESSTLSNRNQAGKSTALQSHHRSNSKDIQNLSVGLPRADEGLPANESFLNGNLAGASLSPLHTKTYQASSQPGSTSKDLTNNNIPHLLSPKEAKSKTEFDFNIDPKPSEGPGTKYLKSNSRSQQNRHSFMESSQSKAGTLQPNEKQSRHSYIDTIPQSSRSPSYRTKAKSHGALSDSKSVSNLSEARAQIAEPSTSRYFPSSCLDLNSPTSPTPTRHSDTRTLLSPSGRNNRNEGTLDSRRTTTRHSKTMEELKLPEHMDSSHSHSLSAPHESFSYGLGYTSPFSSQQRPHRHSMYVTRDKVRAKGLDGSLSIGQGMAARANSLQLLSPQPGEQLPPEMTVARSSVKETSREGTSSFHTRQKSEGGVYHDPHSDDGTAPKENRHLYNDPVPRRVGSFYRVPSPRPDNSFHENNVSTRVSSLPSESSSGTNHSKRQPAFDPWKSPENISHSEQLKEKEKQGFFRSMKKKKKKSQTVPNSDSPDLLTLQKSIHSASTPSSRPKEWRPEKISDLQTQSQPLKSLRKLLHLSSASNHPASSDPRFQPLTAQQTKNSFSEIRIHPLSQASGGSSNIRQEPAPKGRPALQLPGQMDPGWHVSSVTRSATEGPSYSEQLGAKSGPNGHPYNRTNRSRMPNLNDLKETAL

[6] = target: Casein kinase I isoform alpha (Homo sapiens) (UniProt P48729); experiment: Inhibition of human CSNK1A1 assessed as percent of control at 2000 nM by KINOMEscan assay relative to control; settings: INHIBITOR
Chain of Casein kinase I isoform alpha (Homo sapiens) (P48729 2-337 limits assumed): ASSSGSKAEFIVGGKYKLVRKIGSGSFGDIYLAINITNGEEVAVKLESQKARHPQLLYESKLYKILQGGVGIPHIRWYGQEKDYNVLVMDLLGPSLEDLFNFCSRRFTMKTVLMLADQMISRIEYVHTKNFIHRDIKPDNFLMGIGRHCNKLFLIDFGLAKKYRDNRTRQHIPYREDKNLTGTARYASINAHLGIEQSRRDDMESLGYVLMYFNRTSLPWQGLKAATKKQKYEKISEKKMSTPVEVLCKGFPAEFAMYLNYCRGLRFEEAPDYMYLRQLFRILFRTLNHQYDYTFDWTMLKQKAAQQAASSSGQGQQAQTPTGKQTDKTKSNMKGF

[7] = test system: Epidermal growth factor receptor (Homo sapiens), P00533 [UNDEFINED MUTATION]; experiment: Inhibition of human EGFR L747-S752del/P753S double mutant assessed as percent of control at 2000 nM by KINOMEscan assay relative to control
[8] = test system: Epidermal growth factor receptor (Homo sapiens), P00533 [L858R,T790M]; experiment: Inhibition of human EGFR L858R/T790M double mutant assessed as percent of control at 2000 nM by KINOMEscan assay relative to control
[9] = target: Ephrin type-A receptor 1 (Homo sapiens) (UniProt P21709); experiment: Inhibition of human EPHA1 assessed as percent of control at 2000 nM by KINOMEscan assay relative to control
Chain of Ephrin type-A receptor 1 (Homo sapiens) (P21709 whole entry): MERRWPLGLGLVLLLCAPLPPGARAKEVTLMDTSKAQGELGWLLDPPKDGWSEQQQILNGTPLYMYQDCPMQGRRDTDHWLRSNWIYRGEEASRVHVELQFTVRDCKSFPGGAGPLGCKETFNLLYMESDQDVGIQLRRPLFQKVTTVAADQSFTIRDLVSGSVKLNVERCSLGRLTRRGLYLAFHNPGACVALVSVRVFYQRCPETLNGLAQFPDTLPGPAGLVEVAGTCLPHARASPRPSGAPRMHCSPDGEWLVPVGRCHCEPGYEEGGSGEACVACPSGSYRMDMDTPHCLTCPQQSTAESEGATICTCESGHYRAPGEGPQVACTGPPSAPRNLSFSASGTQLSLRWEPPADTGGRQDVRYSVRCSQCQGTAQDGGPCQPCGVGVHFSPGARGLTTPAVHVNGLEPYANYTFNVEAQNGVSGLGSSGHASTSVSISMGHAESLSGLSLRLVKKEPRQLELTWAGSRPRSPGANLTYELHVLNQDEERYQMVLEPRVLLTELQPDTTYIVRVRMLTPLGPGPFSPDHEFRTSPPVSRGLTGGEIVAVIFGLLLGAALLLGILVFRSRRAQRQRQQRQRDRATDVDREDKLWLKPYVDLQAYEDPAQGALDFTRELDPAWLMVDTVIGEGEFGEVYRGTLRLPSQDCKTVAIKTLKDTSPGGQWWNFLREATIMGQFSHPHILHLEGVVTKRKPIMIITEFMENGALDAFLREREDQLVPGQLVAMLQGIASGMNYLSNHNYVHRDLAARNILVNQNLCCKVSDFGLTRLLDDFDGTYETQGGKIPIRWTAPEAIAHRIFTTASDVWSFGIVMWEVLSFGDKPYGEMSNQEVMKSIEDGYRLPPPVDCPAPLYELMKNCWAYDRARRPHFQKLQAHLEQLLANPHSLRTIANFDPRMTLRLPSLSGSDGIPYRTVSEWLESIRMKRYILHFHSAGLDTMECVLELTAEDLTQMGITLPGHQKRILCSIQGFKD

[10] = target: Ephrin type-A receptor 3 (Homo sapiens) (UniProt P29320); experiment: Inhibition of human EPHA3 assessed as percent of control at 2000 nM by KINOMEscan assay relative to control
[11] = target: Ephrin type-A receptor 7 (Homo sapiens) (UniProt Q15375); experiment: Inhibition of human EPHA7 assessed as percent of control at 2000 nM by KINOMEscan assay relative to control
[12] = target: Ephrin type-B receptor 2 (Homo sapiens) (UniProt P29323); experiment: Inhibition of human EPHB2 assessed as percent of control at 2000 nM by KINOMEscan assay relative to control
[13] = target: Ephrin type-B receptor 3 (Homo sapiens) (UniProt P54753); experiment: Inhibition of human EPHB3 assessed as percent of control at 2000 nM by KINOMEscan assay relative to control
[14] = target: Mitogen-activated protein kinase 6 (Homo sapiens) (UniProt Q16659); experiment: Inhibition of human ERK3 assessed as percent of control at 2000 nM by KINOMEscan assay relative to control
Chain of Mitogen-activated protein kinase 6 (Homo sapiens) (Q16659 whole entry): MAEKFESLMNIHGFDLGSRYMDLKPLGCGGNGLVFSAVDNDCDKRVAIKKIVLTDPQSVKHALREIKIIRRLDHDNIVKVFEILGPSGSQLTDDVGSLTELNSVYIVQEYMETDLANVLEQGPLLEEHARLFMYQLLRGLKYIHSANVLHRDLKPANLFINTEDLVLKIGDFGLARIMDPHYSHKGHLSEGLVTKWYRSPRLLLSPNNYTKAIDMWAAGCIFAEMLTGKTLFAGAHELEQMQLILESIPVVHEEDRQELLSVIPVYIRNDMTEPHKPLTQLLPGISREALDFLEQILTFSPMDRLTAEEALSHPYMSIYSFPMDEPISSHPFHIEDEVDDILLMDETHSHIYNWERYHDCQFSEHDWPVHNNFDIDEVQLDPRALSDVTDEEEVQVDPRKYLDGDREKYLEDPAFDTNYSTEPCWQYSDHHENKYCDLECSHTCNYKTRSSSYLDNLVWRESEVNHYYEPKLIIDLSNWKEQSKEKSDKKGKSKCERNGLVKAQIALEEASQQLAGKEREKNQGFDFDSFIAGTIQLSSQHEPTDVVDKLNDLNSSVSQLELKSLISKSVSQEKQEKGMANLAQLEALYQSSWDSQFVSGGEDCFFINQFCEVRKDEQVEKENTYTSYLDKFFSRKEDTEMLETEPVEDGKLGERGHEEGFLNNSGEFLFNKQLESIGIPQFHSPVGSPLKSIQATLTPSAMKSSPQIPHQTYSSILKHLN

[15] = target: Fibroblast growth factor receptor 4 (Homo sapiens) (UniProt P22455); experiment: Inhibition of human FGFR4 assessed as percent of control at 2000 nM by KINOMEscan assay relative to control
[16] = test system: Receptor-type tyrosine-protein kinase FLT3 (Homo sapiens), P36888 [D835H]; experiment: Inhibition of human FLT3 D835H mutant assessed as percent of control at 2000 nM by KINOMEscan assay relative to control
[17] = target: Receptor-type tyrosine-protein kinase FLT3 (Homo sapiens) (UniProt P36888); experiment: Inhibition of human autoinhibited FLT3 assessed as percent of control at 2000 nM by KINOMEscan assay relative to control
[18] = target: Cyclin-G-associated kinase (Homo sapiens) (UniProt O14976); experiment: Inhibition of human GAK assessed as percent of control at 2000 nM by KINOMEscan assay relative to control
[19] = target: Insulin receptor (Homo sapiens) (UniProt P06213); experiment: Inhibition of human INSR assessed as percent of control at 2000 nM by KINOMEscan assay relative to control
[20] = target: Mast/stem cell growth factor receptor Kit (Homo sapiens) (UniProt P10721); experiment: Inhibition of human autoinhibited KIT assessed as percent of control at 2000 nM by KINOMEscan assay relative to control
[21] = target: MAP kinase-activated protein kinase 2 (Homo sapiens) (UniProt P49137); experiment: Inhibition of human MAPKAPK2 assessed as percent of control at 2000 nM by KINOMEscan assay relative to control
[22] = target: Dual specificity mitogen-activated protein kinase kinase 4 (Homo sapiens) (UniProt P45985); experiment: Inhibition of human MEK4 assessed as percent of control at 2000 nM by KINOMEscan assay relative to control
Chain of Dual specificity mitogen-activated protein kinase kinase 4 (Homo sapiens) (P45985 whole entry): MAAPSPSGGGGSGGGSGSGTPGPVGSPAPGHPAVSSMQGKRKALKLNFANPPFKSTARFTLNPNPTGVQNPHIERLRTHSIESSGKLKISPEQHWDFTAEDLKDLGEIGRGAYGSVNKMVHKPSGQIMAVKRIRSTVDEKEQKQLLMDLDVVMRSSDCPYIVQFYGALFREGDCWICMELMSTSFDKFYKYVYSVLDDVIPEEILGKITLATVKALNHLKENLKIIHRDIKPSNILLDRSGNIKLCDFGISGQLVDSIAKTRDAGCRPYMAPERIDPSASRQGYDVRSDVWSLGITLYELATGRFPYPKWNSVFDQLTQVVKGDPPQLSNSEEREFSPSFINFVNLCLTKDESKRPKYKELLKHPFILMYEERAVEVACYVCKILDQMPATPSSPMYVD

[23] = target: Mitogen-activated protein kinase kinase kinase 9 (Homo sapiens) (UniProt P80192); experiment: Inhibition of human MLK1 assessed as percent of control at 2000 nM by KINOMEscan assay relative to control
[24] = test system: Phosphatidylinositol 4,5-bisphosphate 3-kinase catalytic subunit alpha isoform (Homo sapiens), P42336 [H1047Y]; experiment: Inhibition of human PIK3CA H1047Y mutant assessed as percent of control at 2000 nM by KINOMEscan assay relative to control
[25] = test system: Proto-oncogene tyrosine-protein kinase receptor Ret (Homo sapiens), P07949 [V804M]; experiment: Inhibition of human RET V804M mutant assessed as percent of control at 2000 nM by KINOMEscan assay relative to control
[26] = target: Ribosomal protein S6 kinase beta-1 (Homo sapiens) (UniProt P23443); experiment: Inhibition of human S6K1 assessed as percent of control at 2000 nM by KINOMEscan assay relative to control
[27] = target: Serine/threonine-protein kinase 16 (Homo sapiens) (UniProt O75716); experiment: Inhibition of human STK16 assessed as percent of control at 2000 nM by KINOMEscan assay relative to control
Chain of Serine/threonine-protein kinase 16 (Homo sapiens) (O75716 whole entry): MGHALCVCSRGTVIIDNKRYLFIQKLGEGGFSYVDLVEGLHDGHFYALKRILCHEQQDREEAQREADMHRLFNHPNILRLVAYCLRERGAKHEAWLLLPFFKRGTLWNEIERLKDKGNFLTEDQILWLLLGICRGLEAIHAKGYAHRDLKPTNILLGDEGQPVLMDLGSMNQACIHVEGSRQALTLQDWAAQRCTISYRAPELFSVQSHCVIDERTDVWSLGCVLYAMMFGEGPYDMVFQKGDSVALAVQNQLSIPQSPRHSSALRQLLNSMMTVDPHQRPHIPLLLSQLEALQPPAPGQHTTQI

[28] = target: Testis-specific serine/threonine-protein kinase 1 (Homo sapiens) (UniProt Q9BXA7); experiment: Inhibition of human TSSK1B assessed as percent of control at 2000 nM by KINOMEscan assay relative to control
Chain of Testis-specific serine/threonine-protein kinase 1 (Homo sapiens) (Q9BXA7 whole entry): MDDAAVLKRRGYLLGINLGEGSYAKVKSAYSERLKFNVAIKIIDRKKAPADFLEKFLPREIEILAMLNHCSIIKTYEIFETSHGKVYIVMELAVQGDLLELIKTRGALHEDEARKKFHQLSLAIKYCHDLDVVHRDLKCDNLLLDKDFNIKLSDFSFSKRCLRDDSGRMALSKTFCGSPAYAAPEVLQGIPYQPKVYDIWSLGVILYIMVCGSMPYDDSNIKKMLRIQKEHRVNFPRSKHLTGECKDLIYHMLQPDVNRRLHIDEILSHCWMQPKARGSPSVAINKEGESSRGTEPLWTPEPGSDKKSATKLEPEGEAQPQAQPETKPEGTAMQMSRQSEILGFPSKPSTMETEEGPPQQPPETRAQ

[29] = target: Serine/threonine-protein kinase 32A (Homo sapiens) (UniProt Q8WU08); experiment: Inhibition of human YANK1 assessed as percent of control at 2000 nM by KINOMEscan assay relative to control
Chain of Serine/threonine-protein kinase 32A (Homo sapiens) (Q8WU08 whole entry): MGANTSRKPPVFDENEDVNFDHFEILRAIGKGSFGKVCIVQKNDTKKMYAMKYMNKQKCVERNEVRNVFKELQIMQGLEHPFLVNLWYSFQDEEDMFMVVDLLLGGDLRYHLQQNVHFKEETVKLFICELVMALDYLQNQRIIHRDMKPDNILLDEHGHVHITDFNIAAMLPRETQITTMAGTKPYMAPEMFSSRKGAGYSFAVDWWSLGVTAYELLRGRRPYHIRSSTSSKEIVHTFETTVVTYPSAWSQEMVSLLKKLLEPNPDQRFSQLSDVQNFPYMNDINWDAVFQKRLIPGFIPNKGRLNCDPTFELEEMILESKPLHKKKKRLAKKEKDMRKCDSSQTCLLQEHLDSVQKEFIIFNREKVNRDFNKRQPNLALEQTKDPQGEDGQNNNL

[30] = target: Serine/threonine-protein kinase 32C (Homo sapiens) (UniProt Q86UX6); experiment: Inhibition of human YANK3 assessed as percent of control at 2000 nM by KINOMEscan assay relative to control
[31] = target: Tyrosine-protein kinase ZAP-70 (Homo sapiens) (UniProt P43403); experiment: Inhibition of human ZAP70 assessed as percent of control at 2000 nM by KINOMEscan assay relative to control

Q: CN(C)C(=O)c1ccc(N2CCCN(c3ccnc4sc(C(N)=O)c(N)c34)CC2)cc1 was tested. Which Activity [1] did it give?
A: 100%

Q: And the Activity [2]?
A: 79% and 88%

Q: What about the Activity [3] of the same compound?
A: 100% and 99%

Q: And the Activity [4]?
A: 99% and 92%

Q: What about the Activity [5] of the same compound?
A: 100% and 84%

Q: And the Activity [6]?
A: 33% and 12%

Q: And the Activity [7]?
A: 99% and 100%

Q: And the Activity [8]?
A: 100% and 87%

Q: And the Activity [9]?
A: 92% and 95%

Q: And the Activity [10]?
A: 100% and 87%

Q: What about the Activity [11] of the same compound?
A: 92% and 81%

Q: What about the Activity [12] of the same compound?
A: 99% and 95%

Q: What about the Activity [13] of the same compound?
A: 96% and 94%

Q: What about the Activity [14] of the same compound?
A: 88% and 94%

Q: And the Activity [15]?
A: 100% and 96%

Q: What about the Activity [16] of the same compound?
A: 63% and 76%

Q: What about the Activity [17] of the same compound?
A: 72% and 77%

Q: And the Activity [18]?
A: 88% and 94%

Q: And the Activity [19]?
A: 97% and 80%

Q: What about the Activity [20] of the same compound?
A: 90%

Q: What about the Activity [21] of the same compound?
A: 91% and 99%

Q: And the Activity [22]?
A: 69% and 74%

Q: What about the Activity [23] of the same compound?
A: 95% and 92%

Q: What about the Activity [24] of the same compound?
A: 79% and 100%

Q: What about the Activity [25] of the same compound?
A: 100%

Q: What about the Activity [26] of the same compound?
A: 95% and 89%

Q: What about the Activity [27] of the same compound?
A: 80% and 87%

Q: And the Activity [28]?
A: 80% and 99%

Q: What about the Activity [29] of the same compound?
A: 89% and 97%

Q: What about the Activity [30] of the same compound?
A: 81% and 97%

Q: And the Activity [31]?
A: 95% and 87%
